From patent US20190307713A1, “COMBINATIONS OF DICLOFENAC AND H2 RECEPTOR ANTAGONISTS FOR THE TREATMENT OF PAIN AND INFLAMMATION” (priority 2016, published 2019)

Key:
[1] = oral, instant or immediate release formulations; cited from earlier work
in vivo = details: male, Wistar, rat, po
Experimental: Male Wistar rats (240-260 g) were maintained in an air conditioned quarters at a temperature of 22±2° C. and a relative humidity of 50±10%. Food and water were allowed ad libitum. The animals were acclimatized to the facilities for five days, and then fasted with free access to water for 12 h prior to the experiment. All these animals were housed under similar conditions.
Blood (0.2 ml) was taken from the tail vein prior to administration of test substances (0 h) and blood was taken after 0.083, 0.167, 0.25, 0.5, 1, 2, 4, 8 and 12 h respectively.
Blood samples were collected in tubes containing %5 Nat-EDTA and kept on ice until dichloromethane was added and they were centrifuged at 7000×g for 5 min at 4° C. and supernatants were collected for HPLC analysis.

[2] = tested on: Caco-2 intestinal permeability model; assay: Caco-2 permeability study of diclofenac potassium and famotidine separately and in combination; format: in vitro ADME; details: Caco-2, 50 μg/ml diclofenac potassium (20 μg/ml famotidine in combination)
Experimental: The permeability study designed using Caco-2 intestinal permeability model was prepared by using Millipore 96 well insert plate as 10,000 cells/well on Feb. 21, 2017 and placed in an incubator. Tests on integrity, viability and permeability were performed on Mar. 15, 2017. Viability results were obtained by MTT and integrity results were obtained using Lucifer yellow and the plate was determined to be eligible for permeability study. […] Methanol was used as solvent for the samples and the samples were analyzed in LC/MSMS 8040 analyzer using mobile phase, Methanol+bidistillated water+Ammonium formate.

| Compound | Tmax (time to the maximum plasma concentration) [1] | Cmax (in vivo) | Tmax (in vivo) | Permeability percentage of Diclofenac potassium ([2]; 1 hour) | Permeability percentage of Diclofenac potassium ([2]; 1.5 hours) | Permeability percentage of Diclofenac potassium ([2]; 2 hours) | Permeability percentage of Diclofenac potassium ([2]; 4 hours) | Permeability percentage of Diclofenac potassium ([2]; 8 hours) |
| --- | --- | --- | --- | --- | --- | --- | --- | --- |
| O=C(O)Cc1ccccc1Nc1c(Cl)cccc1Cl [diclofenac, 2-[2-(2,6-dichloroanilino)phenyl]acetic acid] | about 1 hour |  |  |  |  |  |  |  |
| O=C(O)Cc1ccccc1Nc1c(Cl)cccc1Cl [Diclofenac potassium, 2-[2-(2,6-dichloroanilino)phenyl]acetic acid] |  | 1.24 ng/mL | 15 min | 76.93% | 80.76% | 81.80% | 82.22% | 86.32% |
